Experiments:
[1] = Skin sensitization test by local lymph node assay (LLNA), SI value of the materials; type: in vivo; details: for SI (skin sensitization SI value): material as such, local lymph node assay (LLNA) method
Method: The amine value of the dispersant polymer, a skin sensitization SI value indicating a skin sensitizing potential, and the colony count by Ames test indicating carcinogenicity were obtained in the manners described below.
The SI value was measured by a skin sensitization test according to a local lymph node assay (LLNA) method.
Oral toxicity was tested according to OECD test guideline TG423. […] Skin sensitizing potential was tested according to OECD test guideline TG442B.

[2] = type: cell-based; details: OECD test guideline TG471 (±S9 mix)
Method: (§1) As a safety test, AMES test was performed according to OECD test guideline TG471 (±S9 mix), and the result was negative. Oral toxicity was tested according to OECD test guideline TG423. […] Skin stimulation was tested according to OECD test guideline TG404, and the result was PII=0.5. Skin sensitizing potential was tested according to OECD test guideline TG442B.

[3] = Oral toxicity according to OECD test guideline TG423; type: in vivo
Method: as §1

[4] = type: in vivo; details: OECD test guideline TG404
Method: as §1

Molecule	SI (skin sensitization SI value) [1]	other results
C=CC(=O)N(C)CC(=O)OC [Example A1-1, N-acryloyl-N-methylglycinemethyl ester]	(see Synthesis example 1) SI = 1.00	SI value (skin sensitizing potential) ([1]; OECD test guideline TG442B): 1.00; Influence on the health of human bodies (conclusion of the safety tests) ([1]; in vivo, po): significantly uninfluential on the health of human bodies; AMES test result [2]: negative; LD50 ([3]; in vivo, po, 2000 mg/kg): ≥ 2000 mg/kg; Fatal cases (oral toxicity) ([3]; six cases): none of six cases was a fatal case; PII (skin stimulation) [4]: 0.5
C=CC(=O)N(C)CC(=O)OCC [Example A1-2, N-acryloyl-N-methylglycineethyl ester]	(see Synthesis example 2) SI = 1.02	
C=CC(=O)N(C)C(C)C(=O)OC (stereo not shown) [Example A1-3, N-acryloyl-N-methylalaninemethyl ester]	(see Synthesis example 3) SI = 1.12	
C=C(C)C(=O)OCCOCCOC(=O)C(=C)C [Example A2-1]	Shin- Nakamura Chemical Co., Ltd. “2G” SI = 1.05 Ltd.	
C=C(C)C(=O)OCC(CC)(COC(=O)C(=C)C)COC(=O)C(=C)C [Example A2-3]	Shin- Nakamura Chemical Co., Ltd. “TMPT” SI = 1.03	
C=C(C)C(=O)OCC(COC(=O)C(=C)C)OC(C)=O [Example A2-6, 2-acetyl-1,3-glycerol dimethacrylate]	(see Synthesis example 5) SI = 1.40	
C=C(C)C(=O)OCCO [Example A3-1, 2-hydroxyethyl methacrylate]	Tokyo Chemical Industry Co., Ltd. “2-hydroxyethyl methacrylate” SI = 1.26	
C=CC(=O)OCC(CC)(COC(=O)C=C)COC(=O)C=C [Example A4-1]	Toagosei Co., Ltd. “M-3547” SI = 3.42	
Isobornyl acrylate [Example A3-2]	Osaka Organic Chemical Industry Ltd. “Isobomyl acrylate” SI = 8.30	SI (skin sensitization SI value) ([1]; listed as IBXA): 8.30

Source: US20210061929A1, “ACTIVE-ENERGY-RAY-CURABLE COMPOSITION, ACTIVE-ENERGY-RAY-CURABLE INK, COMPOSITION STORED CONTAINER, TWO-DIMENSIONAL OR THREE-DIMENSIONAL IMAGE FORMING METHOD AND APPARATUS, CURED PRODUCT, AND DECORATED PRODUCT” (priority 2019, published 2021)
